This is an account of results in article PMC12027946, “Ionic and Non-Ionic Counterparts Based on Bis(Uracilyl)Alkane Moiety with Highest Selectivity Towards Acetylcholinesterase for Protection Against Organophosphate Poisoning and Treating Alzheimer’s Disease” (International Journal of Molecular Sciences, 2025).

Each structure is given as a SMILES string. Read-outs that look alike come from different tables or passages of the source.

The target of series [1] is T1, human AChE (Homo sapiens, UniProt P22303).
T1 construct: purchased Sigma-Aldrich
The note with it: Table 1, bisuracils 1a–f, cited from earlier work; for AChE Selectivity: (IC50 BuChE)/(IC50 AChE).

Series [2] deals with T2, BChE from human plasma (Homo sapiens, UniProt P06276).
T2 construct: butyrylcholiesterase from human plasma; purchased Sigma-Aldrich; host or cells: human plasma
The note with it: Table 1; bisuracils 1a–f; read-out: IC50 BuChE; cited from earlier work.

For series [3], the target named is T2, BChE from human plasma. As to the kind of experiment: In vitro cholinesterase inhibition (Ellman), BuChE. The format is biochemical. The note with it: read-out: IC50 BuChE. The protocol: (§1) Inhibitory activities of the tested compounds against AChE and BChE were measured according to Ellman et al.. Enzyme-catalysed hydrolysis of ATCHh was carried out at 25 °C in 0.1 M phosphate buffer (pH 8.0) containing 0.25 U AChE, 1 mM ATCHh as substrates, and 0.1 mM of DTNB. In experiments with BuChE, 0.1 M phosphate buffer (pH 7.0) and BuTChh as a substrate were used. The tested compounds were pre-incubated with the enzyme for two minutes prior to the addition of the substrate and the subsequent recording of hydrolysis kinetics. […] A sample without an inhibitor was used as a control (100% cholinesterase activity). A sample without a substrate was used as a blank. Experiments were performed in triplicate.

Series [4] has as its target T1, human AChE. As to the kind of experiment: In vitro cholinesterase inhibition (Ellman), AChE. The format is biochemical. The note with it: for IC50: read-out: IC50 AChE; for AChE Selectivity: (IC50 BuChE)/(IC50 AChE). On the procedure:
as §1

Series [5] has as its system mice poisoned with 2×LD50 of POX. As to the kind of experiment: Protection against POX toxicity (pre-treatment). The note with it: for relative risk of death (RRD): Cox analysis over 10 h. It counts as in vivo. The protocol:
The concept of using reversible AChE inhibition as a preventive strategy to enhance the efficacy of traditional antidotes in OP poisoning is a well-established principle. This study explores the potential of bisuracil 2b as a preventive agent to protect AChE from irreversible inhibition caused by paraoxon (POX), a model OP. […] Following POX administration, the standard antidote atropine was given at a dose of 15 mg/kg within one minute. […] Increasing the dose of bisuracil 2b reduced the protective effect in POX poisoned animals (Table 3).
We also estimated the relative risk of death (RRD) as a function of precocity (from min to hours) over a period of 10 h by Cox survival analysis. Statistical differences in the number of surviving animals between experimental groups were tested using the Cox–Mantel multisample logarithmic rank criterion. It was shown that, in mice exposed to 0.42 mg/kg of POX, RRD = 1 (Figure 5). However, in animals that received atropine within 1 min after poisoning, POX-induced mortality was lower (RRD = 0.5; Figure 5).
The tested compound was administered via i.p. before POX injection.

Series [6] deals with scopolamine-induced amnesia in mice. As to the kind of experiment: Novel object recognition test, scopolamine-induced amnesia. The format is in vivo. The protocol:
This study explored the ability of bisuracil 3c to counteract scopolamine-induced amnesia in mice, utilising behavioural assessments conducted through the novel object recognition test. […] The induction of amnesia was facilitated by the i.p. injection of scopolamine (1.5 mg/kg) 50 min prior to testing. […]. An equivalent amount of the vehicle was administered to a control group of mice.
The experiments were carried out on CD1 mice of both sexes weighing 24–25 g. The novel object recognition test was conducted over a period of three days. On the first day, the mice were placed individually into the square testing arena with black walls (50 cm in length, 50 cm in width, 38 cm in height) for 5 min without any objects. On the second day, two identical objects were placed in the central part of the arena, and the mice were allowed to explore the objects for 10 min. Test compounds were administered prior to testing on the second day. The induction of amnesia was facilitated by i.p. injection of scopolamine (1.5 mg/kg) 50 min prior to testing. Tested compounds were administered i.p. 30 min prior to testing. The control group of animals was administered with an equivalent amount of vehicle. On the third day, the mice were presented with a familiar and a novel object for 10 min. The time of exploration of each object by the mice was recorded using a digital camera. After each test, the arena was cleaned with a solution of 70% ethanol. At the end of the test, the preference index (exploration of novel object/total exploration time × 100) was calculated.

The subject of another series is AChE. The note with it: cited from earlier work.
The mark [7] stands for this setting: Table 1, BChE from human plasma, pH 7.0.
[8] abbreviates: Table 1, recombinant human AChE, 25 °C, pH 8.0.

T1 sequence (P22303 32-614): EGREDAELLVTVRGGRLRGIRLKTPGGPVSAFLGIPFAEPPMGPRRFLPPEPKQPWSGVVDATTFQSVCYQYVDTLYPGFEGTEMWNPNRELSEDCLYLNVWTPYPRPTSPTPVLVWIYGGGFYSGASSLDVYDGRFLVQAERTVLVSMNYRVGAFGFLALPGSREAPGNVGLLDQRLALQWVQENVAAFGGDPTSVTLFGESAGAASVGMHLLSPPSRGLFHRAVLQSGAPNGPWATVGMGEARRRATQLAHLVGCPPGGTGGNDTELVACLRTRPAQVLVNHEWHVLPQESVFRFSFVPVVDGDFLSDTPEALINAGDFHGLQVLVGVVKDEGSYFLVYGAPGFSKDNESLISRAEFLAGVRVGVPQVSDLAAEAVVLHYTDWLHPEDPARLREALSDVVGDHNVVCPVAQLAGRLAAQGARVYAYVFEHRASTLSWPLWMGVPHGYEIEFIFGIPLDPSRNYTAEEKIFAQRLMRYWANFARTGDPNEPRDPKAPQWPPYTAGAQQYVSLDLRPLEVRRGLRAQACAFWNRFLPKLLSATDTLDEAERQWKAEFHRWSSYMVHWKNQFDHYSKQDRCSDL
T2 sequence (P06276 29-602): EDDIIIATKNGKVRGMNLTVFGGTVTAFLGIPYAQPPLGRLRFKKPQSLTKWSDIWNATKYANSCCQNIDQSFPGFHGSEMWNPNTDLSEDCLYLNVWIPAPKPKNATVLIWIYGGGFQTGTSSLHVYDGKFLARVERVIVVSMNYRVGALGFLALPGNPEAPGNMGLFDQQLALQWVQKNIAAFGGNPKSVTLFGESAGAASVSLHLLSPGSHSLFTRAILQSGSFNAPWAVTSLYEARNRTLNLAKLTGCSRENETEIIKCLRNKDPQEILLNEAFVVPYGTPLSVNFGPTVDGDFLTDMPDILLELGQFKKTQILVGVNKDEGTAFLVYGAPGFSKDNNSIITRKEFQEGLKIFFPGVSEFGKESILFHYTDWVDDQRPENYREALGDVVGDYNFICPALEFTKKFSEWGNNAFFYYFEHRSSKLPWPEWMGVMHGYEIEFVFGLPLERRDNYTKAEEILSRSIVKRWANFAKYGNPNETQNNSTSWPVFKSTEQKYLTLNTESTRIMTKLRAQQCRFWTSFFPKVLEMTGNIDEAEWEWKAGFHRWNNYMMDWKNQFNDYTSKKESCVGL

As to `CC[N+](CC)(CCCCCn1c(=O)ccn(CCCCCn2c(C)cc(=O)n(C)c2=O)c1=O)Cc1ccccc1[N+](=O)[O-]` [1a], on human AChE [1], the “AChE Selectivity” value is on record as 112,676 and the IC50 is 0.0004 ± 3e-05 µM. On BChE from human plasma [2], the IC50 is 40 µM.
With `CC[N+](CC)(CCCCCn1c(=O)ccn(CCCCCCn2c(C)cc(=O)n(C)c2=O)c1=O)Cc1ccccc1[N+](=O)[O-]` [1b], on human AChE [1], the “AChE Selectivity” value was 60,000 and the IC50 is 0.0001 ± 1e-05 µM. Further, on BChE from human plasma [2], the IC50 is 6 ± 0.43 µM.
Take `CC[N+](CC)(CCCCCn1c(=O)ccn(CCCn2c(C)cc(=O)n(C)c2=O)c1=O)Cc1ccccc1C(F)(F)F` [1c]: on human AChE [1], the “AChE Selectivity” value was 220,000 and the IC50 is 0.002 ± 0.0002 µM. Further, at BChE from human plasma [2], the IC50 was 440 µM.
`CC[N+](CC)(CCCCCn1c(=O)ccn(CCCCn2c(C)cc(=O)n(C)c2=O)c1=O)Cc1ccccc1C(F)(F)F` [1d]: on human AChE [1], the “AChE Selectivity” value is given as 200,000 and the IC50 was 0.001 ± 0.0001 µM. Also, the IC50 on BChE from human plasma [2] was 200 µM.
On to `CC[N+](CC)(CCCCCn1c(=O)ccn(CCCCCn2c(C)cc(=O)n(C)c2=O)c1=O)Cc1ccccc1C(F)(F)F` [1e], for which, on human AChE [1], the “AChE Selectivity” value is listed as 120,000 and the IC50 is 0.0005 ± 3e-05 µM. The IC50 at BChE from human plasma [2] was 60 µM.
`CC[N+](CC)(CCCCCn1c(=O)ccn(CCCCCCn2c(C)cc(=O)n(C)c2=O)c1=O)Cc1ccccc1C(F)(F)F` [1f]: on human AChE [1], the “AChE Selectivity” value is on record as 200,000 and the IC50 was 0.0002 ± 1e-05 µM. Besides, the IC50 on BChE from human plasma [2] is 40 µM.
As for `CC[N+](CC)(CCCCCn1c(=O)ccn(CCCn2c(C)cc(=O)n(C)c2=O)c1=O)Cc1ccccc1C#N` [2a, 1,3-{(3,6-Dimethyluracil-1-yl)-[3-(5-o-nitrilebenzyl(diethyl)ammonio)pentyl)-uracil-1-yl]}propane bromide], the IC50 at BChE from human plasma [3] (setting [7]) was found to be 370 µM; on human AChE [4] (setting [8]), 0.0003 ± 3e-05 µM.
On to `CC[N+](CC)(CCCCCn1c(=O)ccn(CCCCCn2c(C)cc(=O)n(C)c2=O)c1=O)Cc1ccccc1C#N` [2c, 1,5-{(3,6-Dimethyluracil-1-yl)-[3-(5-o-nitrilebenzyl(diethyl)ammonio)pentyl)-uracil-1-yl]}pentane bromide], for which the IC50 was determined as 70 µM on BChE from human plasma [3] (setting [7]) and 0.0002 ± 6e-05 µM at human AChE [4] (setting [8]). In addition, the “AChE Selectivity” value on human AChE [4] (Table 1) is reported as 388,888.
For `CC[N+](CC)(CCCCCn1c(=O)ccn(CCCCCCn2c(C)cc(=O)n(C)c2=O)c1=O)Cc1ccccc1C#N` [2d, 1,6-{(3,6-Dimethyluracil-1-yl)-[3-(5-o-nitrilebenzyl(diethyl)ammonio)pentyl)-uracil-1-yl]}hexane bromide], the values for the IC50 on BChE from human plasma [3] (setting [7]) and on human AChE [4] (setting [8]) were 30 µM and 0.0005 ± 0.00016 µM, respectively. In addition, at human AChE [4] (Table 1), the “AChE Selectivity” value is listed as 57,034.
With `CCN(CCCCCn1c(=O)ccn(CCCn2c(C)cc(=O)n(C)c2=O)c1=O)Cc1ccccc1C#N` [3a], the IC50 on BChE from human plasma [3] (Table 2, human BuChE) worked out at 69.1 µM; at human AChE [4] (Table 2, human AChE), 0.0061 ± 0.0007 µM. Also, at human AChE [4] (Table 2), the “AChE Selectivity” value is 11,290.
On the same counts, the results for `CCN(CCCCCn1c(=O)ccn(CCCCn2c(C)cc(=O)n(C)c2=O)c1=O)Cc1ccccc1C#N` [3b] are 48.3 µM, 0.0079 ± 0.00025 µM and 6090.
Consider `CCN(CCCCCn1c(=O)ccn(CCCCCCn2c(C)cc(=O)n(C)c2=O)c1=O)Cc1ccccc1C#N` [3d], for which the 50% inhibitory concentration (IC50) on BChE from human plasma [3] (Table 2, human BuChE) turned out to be 95 µM; on human AChE [4] (Table 2, human AChE), 0.0054 ± 0.0007 µM.
With `CN1[C@@H]2CC[C@H]1C[C@@H](OC(=O)C(CO)c1ccccc1)C2` (stereo partly drawn) [Atropine, atropine, reference compound], the “n/N (mice surviving 5 days after POX poisoning / total)” value in series [5] (atropine 15 mg/kg i.p. 1 min after POX 0.42 mg/kg i.p., no pre-treatment) is 6/12. In addition, in series [5] (atropine within 1 min after POX), the “relative risk of death (RRD)” value turned out to be 0.5.
Regarding `COc1cc2c(cc1OC)C(=O)C(CC1CCN(Cc3ccccc3)CC1)C2` (stereo not drawn) [Donepezil, donepezil, reference compound], the “increase in the preference for the novel object compared to the scopolamine-treated group” value in series [6] (donepezil 1 mg/kg i.p. 30 min prior to testing, scopolamine 1.5 mg/kg, p = 0.03) is 32.2%.
Take `CCOP(=O)(OCC)Oc1ccc([N+](=O)[O-])cc1` [POX, paraoxon, reference compound]: in series [5] (POX 0.42 mg/kg alone), the “relative risk of death (RRD)” value is reported as 1. Moreover, the “n/N (mice surviving 5 days after POX poisoning / total)” value in series [5] (POX 0.42 mg/kg i.p. (2×LD50) alone) is on record as 0/12.
With `COc1ccc2c3c1O[C@H]1C[C@@H](O)C=C[C@@]31CCN(C)C2` [galantamine], in the series on AChE, the “selectivity for AChE over BuChE” value was 50 fold.
As for `CCN(C)C(=O)Oc1cccc([C@H](C)N(C)C)c1` [rivastigmine], in the series with AChE, the “inhibition profile (AChE vs BuChE)” value is recorded as “non-selective”.
On to `CN1[C@@H]2C[C@@H](OC(=O)[C@H](CO)c3ccccc3)C[C@H]1[C@@H]1O[C@@H]12` [scopolamine, reference compound], for which the “reduction of the preference for the novel object compared to the control group” value in series [6] (scopolamine 1.5 mg/kg i.p. 50 min prior to testing, p = 0.0001) is recorded as 34.1%.
